“Also recorded” adds a separate entry of the source.
How the values were obtained:
HEK293-6E cells = experiment: Trypan blue cell viability assay; type: cell-based
Procedure: HEK293-6E cell viability was measured using trypan blue (0.03%) staining and a Countess Automated Cell counter (Invitrogen). Non-transfected HEK293-6E cells were spun at 100×g for 5 min at 21° C., and resuspended in 10 mL of PBS. The centrifugation and resuspension were repeated twice more. Final cell concentration was 1×10^6 cells/mL. Cells were incubated with 2% DMSO, or 3-50 μM compound (as indicated) for 3 hrs at room temperature (21° C.). After addition of 100 μL of 0.06% trypan blue solution in PBS, 10 μL was loaded on a slide and injected into the cell counter, and cell viability was measured.

[1] = target: T1, Lifeact-mCherry binding to F-actin (Oryctolagus cuniculus, UniProt P68135); experiment: F-actin and Lifeact-mCherry co-sedimentation assay; design: species or system New Zealand white rabbit (Oryctolagus cuniculus)
T1 construct: Actin was purified from acetone powder derived from the psoas muscle; made in house; host or cells: actin from rabbit psoas muscle; Lifeact-mCherry from E. coli, pE-SUMOpro
Procedure: (§1) Actin was purified from acetone powder derived from the psoas muscle of New Zealand white rabbit (Oryctolagus cuniculus). Filamentous (F)-actin was stored for up to 3 days on ice before use in binding assays. Within an hour of the binding assay, the F-actin was clarified at 100,000×g at 4° C. for 10 min prior to setting up binding assays. The L253P β-III-spectrin ABD was expressed in E. coli BL21(DE3) (Novagen). The ABD was purified and the His-SUMO tag proteolytically removed, as previously described, except size-exclusion chromatography was not performed due to the high purity of the ABD protein. Lifeact-mCherry protein was similarly prepared. A Bradford assay was performed to determine clarified F-actin and ABD protein concentrations.
(§2) F-actin and ABD binding assays were performed as previously described. In brief, binding assays used 1 μM ABD protein, 1 μM F-actin and 1-50 μM compound (as indicated) or DMSO control for a total reaction volume of 60 μL in F-buffer containing 10 mM Tris, pH 7.5, 150 mM NaCl, 0.5 mM ATP, 2 mM MgCl2, and 1 mM DTT. Following 30 min incubation at room temperature (21° C.). F-actin was pelleted using centrifugation at 100,000×g at 25° C. for 30 min. Unbound ABD in the supernatant was measured following SDS-PAGE and Coomassie blue staining in accord. In addition, control co-sedimentations assays that lacked actin were performed to test if compounds cause ABD aggregation. F-actin and Lifeact-mCherry binding assays were undertaken with 2 μM Lifeact-mCherry, 30 μM F-actin and 1-50 μM compound (as indicated) or DMSO control for a total reaction volume of 80 μL in F-buffer. For a no-actin binding control, an assay sample with no F-actin was also set up. Binding reactions were allowed to reach equilibrium at room temperature (21° C.) for 30 min and then F-actin was pelleted by centrifugation at 100,000×g at 25° C. for 30 min. The amount of unbound Lifeact-mCherry was sampled by loading 7 μL of spin supernatant on a low volume black bottom 384-well plate (Greiner). Amount of mCherry was determined by acquiring fluorescence spectrum peak intensity at ˜600 nm using a spectral unmixing plate reader (Fluorescence Innovations, Inc) equipped with a 532 nm laser (Laserglow Technologies, Ontario, Canada) for excitation, 532 nm longpass filter for emission, and PMT for emission detection. The fraction of Lifeact-mCherry bound to F-actin was determined by subtracting from one the fraction of supernatant fluorescence intensity relative to the no-actin control sample, using the following equation:
[formula] • Where Fcontrol/DMSO is the peak mCherry fluorescence of assay samples containing compound or DMSO control, and Fno-actin is the peak mCherry fluorescence of assay samples that contained no F-actin. 2.9 Trypan Blue Cell Viability Assays

[2] = target: T2, ternary complex consisting of GFP-ABD-L253P, Lifeact-mCherry, and actin (Homo sapiens, UniProt O15020, L253P); experiment: Primary live-cell time-resolved FRET assay (GFP-ABD-L253P plus Lifeact-mCherry); type: cell-based; conditions: for effect on FRET in primary screen (Hit, 4SD threshold): LOPAC compounds 10 μM, 120 min
T2 construct: L252P β-III-spectrin (human) ABD residues 1-284; expressed in transfected cells; host or cells: HEK293-6E, pTT5 vector, transient
T2 sequence (O15020 1-284 L253P, one chain of several): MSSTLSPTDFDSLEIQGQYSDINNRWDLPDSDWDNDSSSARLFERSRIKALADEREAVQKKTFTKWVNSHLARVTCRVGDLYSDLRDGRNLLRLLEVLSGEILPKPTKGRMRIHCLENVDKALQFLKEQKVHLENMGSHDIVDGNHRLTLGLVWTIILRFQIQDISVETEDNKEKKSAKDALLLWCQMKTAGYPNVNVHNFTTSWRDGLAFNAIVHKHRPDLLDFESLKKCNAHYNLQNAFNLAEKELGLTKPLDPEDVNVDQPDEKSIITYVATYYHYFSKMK

mammalian cells = conditions: cited from earlier work
ABD-L253P = target: T3, ABD-L253P (Homo sapiens, UniProt O15020, L253P); experiment: Sedimentation of ABD L253P without actin (aggregation); conditions: 10 μM
T3 construct: His-SUMO (cleaved yes); made in house; host or cells: E. coli BL21(DE3), pE-SUMOpro
T3 sequence (O15020 1-284 L253P): as the sequence (O15020 1-284 L253P, one chain of several) above
Procedure: as §2, with “equation: […]” for “equation:”
In addition to a reduction in cell viability, the primary and counter screen may be sensitive to compounds that promote ABD-L253P protein aggregation. […] Our ABD-L253P to actin co-sedimentation assay is unlikely to be sensitive to ABD aggregation, as it is set up to monitor maximal sedimentation of ABD-L253P with actin at ˜90% ABD-L253P co-sedimenting. To directly measure the impact of 10 μM Hit compounds on ABD aggregation, we repeated the ABD-actin co-sedimentation without actin present.

[3] = target: T4, ABD-L253P (L253P β-III-spectrin ABD) binding to F-actin (Homo sapiens, UniProt O15020, L253P); experiment: F-actin and ABD co-sedimentation assay; conditions: 50 μM, 1 μM ABD, 1 μM F-actin
T4 construct: His-SUMO (cleaved yes); made in house; host or cells: E. coli BL21(DE3), pE-SUMOpro; actin from rabbit psoas muscle
T4 sequence (O15020 1-284 L253P): as the sequence (O15020 1-284 L253P, one chain of several) above
Procedure: as §1
as §2, with “F-actin and Lifeact-mCherry binding assays were undertaken with 2 μM Lifeact-mCherry, 30 μM F-actin and 1-50 μM compound (as indicated) or DMSO control for a total reaction volume of 80 μL in F-buffer. For a no-actin binding control, an assay sample with no F-actin was also set up. Binding reactions were allowed to reach equilibrium at room temperature (21° C.) for 30 min and then F-actin was pelleted by centrifugation at 100,000×g at 25° C. for 30 min. The amount of unbound Lifeact-mCherry was sampled by loading 7 μL of spin supernatant on a low volume black bottom 384-well plate (Greiner).” left out, “equation: […]” for “equation:”

[4] = target: T5, GFP-ABD-L253P and mCherry (non-specific FRET) in HEK293-6E cells (Homo sapiens, UniProt O15020, L253P); experiment: Counter FRET assay, non-specific FRET (GFP-ABD-L253P plus mCherry); type: cell-based; conditions: 0.1% Triton X-100, cell lysis
T5 construct: L252P β-III-spectrin (human) ABD residues 1-284; expressed in transfected cells; host or cells: HEK293-6E, pTT5 vector, transient
T5 sequence (O15020 1-284 L253P): as the sequence (O15020 1-284 L253P, one chain of several) above
Procedure: At 2×10^6 cells/mL, HEK293-6E cells were transfected with GFP-ABD (2.4 μg), Lifeact-mCherry (2.4-16.8 μg), mCherry (1.2-16.8 μg), and/or pTT5 (0.8-17.6 μg) using the 293fectin protocol (Thermo Fisher Scientific) with 20 μg total DNA. The cells were harvested 24 hours later by centrifugation at 100×g for 5 min, and then washed twice with PBS. Cell viability and concentration were determined using trypan blue assay and a Countess cell counter (Invitrogen).
Using a Multidrop Combi liquid dispenser (Thermo Fisher Scientific), 10^6 cells/mL were dispersed into 1536-well and 384-well plates as 5 or 50 μL aliquots, respectively. For control and tool compound plates, 100 nL of DMSO or potential tool compound was loaded using the Mantis (Formulatrix). […] Two to three hours after sample loading, fluorescence lifetime measurements were performed using high-throughput fluorescence plate-readers provided by Photonic Pharma LLC (MN, USA), including one detecting fluorescence lifetime and another detecting fluorescence spectra, as described previously.
To develop a biosensor that monitors the binding of mutant L253P β-III-spectrin to actin filaments in live cells, a fluorescence resonance energy transfer (FRET) approach was tested. […] To measure the non-specific component to our FRET readout, we concurrently tested expression of mCherry in place of Lifeact-mCherry. […]

| Compound | effect on Lifeact-mCherry binding with actin ([1]; 10 μM) | effect on FRET in primary screen (Hit, 4SD threshold) [2] | ABD L253P aggregation (pelleting without actin) (ABD-L253P) | further results |
| --- | --- | --- | --- | --- |
| CCCCCCCCCCCCCCCC(=O)OC(CC(=O)[O-])C[N+](C)(C)C (racemic) [palmitoyl-DL-carnitine] | decreased actin-Lifeact co-sedimentation; also recorded: reduce Lifeact-mCherry binding with actin | decrease FRET | – | effect on HEK293-6E cell viability (HEK293-6E cells; 10 μM, 3 hr incubation): dramatically reduced cell viability; also recorded: reduces HEK293-6E cell viability; reported effect on cell viability (mammalian cells): reported to reduce cell viability |
| CC(C)(C)c1ccc(/C=C/C(=O)Nc2ccc3c(c2)OCCO3)cc1 [AMG 9810] | – | decrease FRET | increases ABD pelleting; also recorded: promote aggregation | – |
| CC(C)(Sc1ccc(CCN(CCCCC2CCCCC2)C(=O)NC2CCCCC2)cc1)C(=O)O [GW7647] | decreased actin-Lifeact co-sedimentation; also recorded: reduce Lifeact-mCherry binding with actin | decrease FRET | increases ABD pelleting; also recorded: promote aggregation | effect on HEK293-6E cell viability (HEK293-6E cells; 10 μM, 3 hr incubation): dramatically reduced cell viability; also recorded: reduces HEK293-6E cell viability |
| O=C(O)c1cc([N+](=O)[O-])ccc1NCCCc1ccccc1 [NPPB] | decreased actin-Lifeact co-sedimentation; also recorded: reduce Lifeact-mCherry binding with actin | decrease FRET | promote aggregation | ABD L253P aggregation (pelleting without actin) (ABD-L253P; listed as NBBP): increases ABD pelleting |
| CCCc1c(-c2ccc(O)cc2)nn(-c2ccc(O)cc2)c1-c1ccc(O)cc1 [PPT] | – | decrease FRET | increases ABD pelleting; also recorded: promote aggregation | – |
| CCCCCCCC/C=C\CCCCCCCC(=O)NCc1ccc(O)c(OC)c1 [olvanil] | – | decrease FRET | increases ABD pelleting; also recorded: promote aggregation | – |
| [H]/N=C(/NCCCCC)N/N=C/c1c[nH]c2ccc(OC)cc12 [tegaserod] | – | – | – | decrease in cell viability (HEK293-6E cells; 50 μM, 3 hrs): 92%; effect on HEK293-6E cell viability (HEK293-6E cells; 50 μM, 3 hrs): greatly diminished cell viability; also recorded: abolishes HEK293-6E cell viability; effect on ABD-L253P binding to actin [3]: did not alter; also recorded: no significant effect; effect on Lifeact-mCherry binding with actin ([1]; 50 μM): did not alter and not; reduction of total FRET ([2]; 50 μM, HEK293-6E cells, relative to DMSO): 83% |
| Triton X-100 | – | – | – | effect on non-specific FRET [4]: abolished; effect on total FRET ([2]; 0.1% Triton X-100, cell lysis): abolished |
